Results as given in patent US11572590B2, “Methods for evaluating tumor cell spheroids using 3D microfluidic cell culture device” (Dana-Farber Cancer Institute, Inc., priority 2017, dated 2023).
Where two headings read alike, the source gives them in different places.

What was measured:
Test in all cases: SelectScreen Kinase Profiling, single point inhibition and IC50 for off-target kinases
Type in all cases: biochemical
off-target kinases [1] = biological target: off-target kinases (Homo sapiens, UniProt P00519, H396P); details: ABL1 H396P, LanthaScreen Binding
off-target kinases [2] = biological target: off-target kinases (Homo sapiens, UniProt P05771); details: PRKCB1 (PKC beta I), ZLYTE, ATP Km app
off-target kinases (Homo sapiens, UniProt P05771), sequence (P05771 whole entry): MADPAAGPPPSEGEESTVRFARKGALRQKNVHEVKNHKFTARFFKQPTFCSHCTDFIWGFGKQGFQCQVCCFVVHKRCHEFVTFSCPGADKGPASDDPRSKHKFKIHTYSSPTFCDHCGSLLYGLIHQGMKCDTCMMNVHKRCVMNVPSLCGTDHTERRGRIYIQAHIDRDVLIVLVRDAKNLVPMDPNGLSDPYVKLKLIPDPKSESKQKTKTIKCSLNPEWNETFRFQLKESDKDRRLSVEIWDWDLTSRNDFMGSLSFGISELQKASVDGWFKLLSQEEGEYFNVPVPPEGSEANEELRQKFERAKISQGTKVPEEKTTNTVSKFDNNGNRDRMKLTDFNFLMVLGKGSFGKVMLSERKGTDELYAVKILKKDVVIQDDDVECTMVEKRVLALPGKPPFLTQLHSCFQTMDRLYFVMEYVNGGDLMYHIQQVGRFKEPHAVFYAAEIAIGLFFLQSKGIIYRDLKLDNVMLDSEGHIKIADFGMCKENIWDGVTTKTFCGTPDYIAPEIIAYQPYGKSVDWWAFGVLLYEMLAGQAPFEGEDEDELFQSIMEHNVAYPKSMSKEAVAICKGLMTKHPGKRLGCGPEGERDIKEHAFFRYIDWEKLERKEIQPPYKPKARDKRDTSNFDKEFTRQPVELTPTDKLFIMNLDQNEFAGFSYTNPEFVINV

off-target kinases [3] = biological target: off-target kinases (Homo sapiens, UniProt P29317); details: EPHA2, ZLYTE, ATP Km app
off-target kinases (Homo sapiens, UniProt P29317), sequence (P29317 24-976): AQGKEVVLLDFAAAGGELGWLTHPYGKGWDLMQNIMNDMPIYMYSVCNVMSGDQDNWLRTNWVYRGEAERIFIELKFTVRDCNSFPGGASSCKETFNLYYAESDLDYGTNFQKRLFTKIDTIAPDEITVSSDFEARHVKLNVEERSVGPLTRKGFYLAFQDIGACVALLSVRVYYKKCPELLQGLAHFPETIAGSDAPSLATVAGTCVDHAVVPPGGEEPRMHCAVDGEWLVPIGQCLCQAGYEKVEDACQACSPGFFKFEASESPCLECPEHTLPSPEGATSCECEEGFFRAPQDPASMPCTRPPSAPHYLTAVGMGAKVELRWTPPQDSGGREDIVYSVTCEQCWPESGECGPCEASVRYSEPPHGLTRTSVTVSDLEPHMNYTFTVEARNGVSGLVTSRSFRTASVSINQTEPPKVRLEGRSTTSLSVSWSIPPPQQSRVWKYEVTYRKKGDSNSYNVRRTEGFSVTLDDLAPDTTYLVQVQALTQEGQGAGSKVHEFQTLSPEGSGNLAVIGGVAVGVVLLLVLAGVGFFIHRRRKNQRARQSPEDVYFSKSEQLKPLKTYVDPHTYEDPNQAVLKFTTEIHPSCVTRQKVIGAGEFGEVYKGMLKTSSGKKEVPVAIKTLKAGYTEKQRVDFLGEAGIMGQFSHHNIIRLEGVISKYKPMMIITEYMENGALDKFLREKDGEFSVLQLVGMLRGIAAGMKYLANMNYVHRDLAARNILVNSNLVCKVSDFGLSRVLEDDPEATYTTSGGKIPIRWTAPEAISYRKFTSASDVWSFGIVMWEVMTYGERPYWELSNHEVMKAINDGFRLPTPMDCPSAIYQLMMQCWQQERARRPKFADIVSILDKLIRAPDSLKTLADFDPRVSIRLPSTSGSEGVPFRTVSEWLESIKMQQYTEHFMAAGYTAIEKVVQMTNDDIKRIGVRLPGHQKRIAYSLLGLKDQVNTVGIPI

off-target kinases [4] = biological target: off-target kinases (Homo sapiens, UniProt P49137); details: MAPKAPK2, ZLYTE, ATP Km app
off-target kinases (Homo sapiens, UniProt P49137), sequence (P49137 whole entry): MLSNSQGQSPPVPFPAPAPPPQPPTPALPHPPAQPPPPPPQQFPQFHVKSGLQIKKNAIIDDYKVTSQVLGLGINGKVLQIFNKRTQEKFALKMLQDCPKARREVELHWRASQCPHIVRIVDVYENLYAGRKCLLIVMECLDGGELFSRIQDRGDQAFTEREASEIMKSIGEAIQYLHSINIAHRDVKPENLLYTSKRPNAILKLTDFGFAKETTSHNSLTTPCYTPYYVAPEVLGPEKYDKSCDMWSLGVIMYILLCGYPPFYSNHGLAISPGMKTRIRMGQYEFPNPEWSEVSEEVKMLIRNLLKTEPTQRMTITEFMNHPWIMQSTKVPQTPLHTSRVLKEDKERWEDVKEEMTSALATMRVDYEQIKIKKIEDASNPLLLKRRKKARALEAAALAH

off-target kinases [5] = biological target: off-target kinases (Homo sapiens, UniProt P49761); details: CLK3, ZLYTE, ATP Km app
off-target kinases (Homo sapiens, UniProt P49761), sequence (P49761 whole entry): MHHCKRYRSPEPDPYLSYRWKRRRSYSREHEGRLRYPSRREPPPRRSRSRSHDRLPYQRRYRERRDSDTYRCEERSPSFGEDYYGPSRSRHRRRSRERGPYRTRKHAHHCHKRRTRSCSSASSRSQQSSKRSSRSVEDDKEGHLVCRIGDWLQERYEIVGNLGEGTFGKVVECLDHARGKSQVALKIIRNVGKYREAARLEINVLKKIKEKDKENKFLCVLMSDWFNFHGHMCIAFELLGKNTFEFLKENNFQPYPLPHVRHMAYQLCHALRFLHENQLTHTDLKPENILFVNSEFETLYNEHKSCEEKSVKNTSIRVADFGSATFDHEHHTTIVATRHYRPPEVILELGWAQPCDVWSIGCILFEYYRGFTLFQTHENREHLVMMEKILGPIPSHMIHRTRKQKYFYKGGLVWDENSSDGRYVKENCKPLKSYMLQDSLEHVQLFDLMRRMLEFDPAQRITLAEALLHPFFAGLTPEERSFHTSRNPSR

off-target kinases [6] = biological target: off-target kinases (Homo sapiens, UniProt Q13153); details: PAK1, ZLYTE, ATP Km app
off-target kinases (Homo sapiens, UniProt Q13153), sequence (Q13153 whole entry): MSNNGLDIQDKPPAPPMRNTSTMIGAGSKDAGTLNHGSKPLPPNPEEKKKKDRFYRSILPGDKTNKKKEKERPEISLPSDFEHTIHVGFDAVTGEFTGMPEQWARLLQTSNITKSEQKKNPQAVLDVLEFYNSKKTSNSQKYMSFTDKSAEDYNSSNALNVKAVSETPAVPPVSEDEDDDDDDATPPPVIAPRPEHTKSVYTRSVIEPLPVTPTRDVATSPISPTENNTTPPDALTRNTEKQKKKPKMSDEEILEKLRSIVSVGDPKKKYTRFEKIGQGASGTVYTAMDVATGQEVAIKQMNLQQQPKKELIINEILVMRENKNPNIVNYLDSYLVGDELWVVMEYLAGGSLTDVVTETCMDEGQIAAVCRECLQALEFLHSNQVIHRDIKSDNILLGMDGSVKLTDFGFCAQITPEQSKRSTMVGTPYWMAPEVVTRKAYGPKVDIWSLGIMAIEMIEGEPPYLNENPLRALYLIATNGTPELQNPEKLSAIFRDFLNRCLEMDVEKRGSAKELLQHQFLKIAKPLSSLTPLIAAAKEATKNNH

off-target kinases [7] = biological target: off-target kinases (Homo sapiens, UniProt Q16539); details: ZLYTE
off-target kinases (Homo sapiens, UniProt Q16539), sequence (Q16539 whole entry): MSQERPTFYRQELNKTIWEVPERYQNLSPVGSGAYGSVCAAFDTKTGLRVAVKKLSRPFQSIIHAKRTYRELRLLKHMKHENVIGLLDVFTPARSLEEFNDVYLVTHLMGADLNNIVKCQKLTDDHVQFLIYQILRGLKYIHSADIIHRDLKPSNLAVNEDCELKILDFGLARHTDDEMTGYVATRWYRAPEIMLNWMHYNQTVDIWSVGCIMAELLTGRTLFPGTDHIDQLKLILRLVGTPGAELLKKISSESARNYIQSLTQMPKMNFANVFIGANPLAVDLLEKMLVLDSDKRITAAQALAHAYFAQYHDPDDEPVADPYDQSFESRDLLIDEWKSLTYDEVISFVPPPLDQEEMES

off-target kinases [8] = biological target: off-target kinases (Homo sapiens, UniProt Q8IU85); details: CAMK1D (CaMKI delta), ZLYTE, ATP Km app
off-target kinases (Homo sapiens, UniProt Q8IU85), sequence (Q8IU85 whole entry): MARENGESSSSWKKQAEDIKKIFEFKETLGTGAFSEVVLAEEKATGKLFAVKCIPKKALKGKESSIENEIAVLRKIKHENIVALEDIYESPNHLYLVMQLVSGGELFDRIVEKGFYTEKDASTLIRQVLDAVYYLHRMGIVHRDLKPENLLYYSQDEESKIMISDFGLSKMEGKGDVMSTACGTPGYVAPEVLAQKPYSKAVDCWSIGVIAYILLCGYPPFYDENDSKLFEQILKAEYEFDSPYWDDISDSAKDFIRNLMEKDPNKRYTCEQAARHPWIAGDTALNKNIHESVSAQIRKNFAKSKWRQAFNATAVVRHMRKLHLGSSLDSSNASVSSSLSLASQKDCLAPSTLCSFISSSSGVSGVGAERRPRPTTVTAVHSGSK

off-target kinases [9] = biological target: off-target kinases (Homo sapiens, UniProt Q8NEB9); details: PIK3C3 (hVPS34); Cmpd1 1000 μM; ATP Km app; Adapta
off-target kinases (Homo sapiens, UniProt Q8NEB9), sequence (Q8NEB9 whole entry): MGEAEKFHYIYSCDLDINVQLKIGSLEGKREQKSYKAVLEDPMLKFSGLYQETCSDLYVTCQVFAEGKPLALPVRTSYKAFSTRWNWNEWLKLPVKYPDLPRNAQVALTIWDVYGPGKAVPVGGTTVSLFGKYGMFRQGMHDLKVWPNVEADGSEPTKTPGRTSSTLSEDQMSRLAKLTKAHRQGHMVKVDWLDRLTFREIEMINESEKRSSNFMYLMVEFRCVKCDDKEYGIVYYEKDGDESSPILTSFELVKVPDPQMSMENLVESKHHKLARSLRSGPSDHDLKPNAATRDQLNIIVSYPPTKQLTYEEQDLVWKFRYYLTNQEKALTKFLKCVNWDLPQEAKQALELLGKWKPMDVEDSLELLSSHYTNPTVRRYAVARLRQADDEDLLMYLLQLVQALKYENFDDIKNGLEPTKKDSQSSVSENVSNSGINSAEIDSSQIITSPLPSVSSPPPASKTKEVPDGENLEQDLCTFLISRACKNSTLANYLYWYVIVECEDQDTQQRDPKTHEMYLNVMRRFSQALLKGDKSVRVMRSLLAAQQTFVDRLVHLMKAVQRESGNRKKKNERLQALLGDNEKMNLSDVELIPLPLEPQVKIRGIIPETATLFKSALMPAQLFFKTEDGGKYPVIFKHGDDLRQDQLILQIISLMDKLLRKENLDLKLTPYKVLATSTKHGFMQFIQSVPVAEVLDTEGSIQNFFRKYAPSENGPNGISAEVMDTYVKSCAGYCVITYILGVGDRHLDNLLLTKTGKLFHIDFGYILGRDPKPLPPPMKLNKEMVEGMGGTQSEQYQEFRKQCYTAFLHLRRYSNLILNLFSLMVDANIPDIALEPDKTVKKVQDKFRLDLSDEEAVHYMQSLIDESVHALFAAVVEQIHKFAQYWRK

off-target kinases [10] = biological target: T1, off-target kinases (Homo sapiens, UniProt Q9UEE5); details: STK17A (DRAK1), LanthaScreen Binding
T1 sequence (Q9UEE5 1-414): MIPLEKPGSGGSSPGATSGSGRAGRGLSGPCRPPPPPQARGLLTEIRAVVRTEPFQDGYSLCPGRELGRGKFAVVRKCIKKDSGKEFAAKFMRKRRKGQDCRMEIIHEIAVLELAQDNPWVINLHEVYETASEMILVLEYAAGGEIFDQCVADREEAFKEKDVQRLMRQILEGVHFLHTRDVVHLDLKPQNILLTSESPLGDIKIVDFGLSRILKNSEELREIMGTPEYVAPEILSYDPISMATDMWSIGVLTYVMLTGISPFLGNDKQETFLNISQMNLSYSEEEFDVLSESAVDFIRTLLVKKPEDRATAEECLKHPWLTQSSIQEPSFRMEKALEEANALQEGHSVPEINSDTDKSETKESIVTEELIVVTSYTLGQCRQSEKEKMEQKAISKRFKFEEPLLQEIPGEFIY

N#Cc1cc(-c2ncnc(Nc3ccc(N4CCN(C5COC5)CC4)cc3)n2)ccc1OC1CCOCC1 [Compound 1, 5-(4-((4-(4-(oxetan-3-yl)piperazin-1-yl)phenyl)amino)-1,3,5-triazin-2-yl)-2-((tetrahydro-2H-pyran-4-yl)oxy)benzonitrile]
inhibition (off-target kinases [1]; read-out: % Inhibition 1): 58%
inhibition (off-target kinases [1]; read-out: % Inhibition 2): 60%
inhibition (off-target kinases [1]; read-out: % Inhibition Avg): 59%
inhibition (off-target kinases [2]; read-out: % Inhibition 1): 5%
inhibition (off-target kinases [2]; read-out: % Inhibition 2): 3%
inhibition (off-target kinases [2]; read-out: % Inhibition Avg): 4%
inhibition (off-target kinases [3]; read-out: % Inhibition 1): 1%
inhibition (off-target kinases [3]; read-out: % Inhibition 2): 12%
inhibition (off-target kinases [3]; read-out: % Inhibition Avg): 6%
inhibition (off-target kinases [4]; read-out: % Inhibition 1): 0%
inhibition (off-target kinases [4]; read-out: % Inhibition 2): -1%
inhibition (off-target kinases [4]; read-out: % Inhibition Avg): 0%
inhibition (off-target kinases [5]; read-out: % Inhibition 1): 1%
inhibition (off-target kinases [5]; read-out: % Inhibition 2): 3%
inhibition (off-target kinases [5]; read-out: % Inhibition Avg): 2%
inhibition (off-target kinases [6]; read-out: % Inhibition 1): 8%
inhibition (off-target kinases [6]; read-out: % Inhibition 2): 8%
inhibition (off-target kinases [6]; read-out: % Inhibition Avg): 8%
inhibition (off-target kinases [7]; MAPK14 (p38 alpha) Direct, ATP Km app, read-out: % Inhibition 1): 2%
inhibition (off-target kinases [7]; MAPK14 (p38 alpha) Direct, ATP Km app, read-out: % Inhibition 2): 1%
inhibition (off-target kinases [7]; MAPK14 (p38 alpha) Direct, ATP Km app, read-out: % Inhibition Avg): 1%
inhibition (off-target kinases [7]; MAPK14 (p38 alpha), ATP 100, read-out: % Inhibition 1): -1%
inhibition (off-target kinases [7]; MAPK14 (p38 alpha), ATP 100, read-out: % Inhibition 2): 9%
inhibition (off-target kinases [7]; MAPK14 (p38 alpha), ATP 100, read-out: % Inhibition Avg): 4%
inhibition (off-target kinases [8]; read-out: % Inhibition 1): 12%
inhibition (off-target kinases [8]; read-out: % Inhibition 2): 13%
inhibition (off-target kinases [8]; read-out: % Inhibition Avg): 12%
% Inhibition 1 (off-target kinases [9]): −5%
% Inhibition 2 (off-target kinases [9]): −9%
% Inhibition Avg (off-target kinases [9]): −7%
inhibition (off-target kinases [10]; read-out: % Inhibition 1): 101%
inhibition (off-target kinases [10]; read-out: % Inhibition 2): 101%
inhibition (off-target kinases [10]; read-out: % Inhibition Avg): 101%
